Values quoted from earlier work in patent publication US6441041B1, “(-)-hydroxycitric acid for the prevention of osteoporosis” (priority 2001, dated 2002).

What was measured:
[1] = system: female Zucker obese (Fa/fa) rats; conditions: obese animals
[2] = system: female Zucker lean (Fa/−) rats; conditions: lean animals

For O=C([O-])CC(O)(C(=O)[O-])C(O)C(=O)[O-].[Na+].[Na+].[Na+] (stereo not drawn) [Tri-NaHCA, trisodium (−)-hydroxycitrate], the “Carcass protein and ash/mineral content in comparison with control” value [1] is given as “increased carcass protein and ash/mineral content” and the “Carcass protein and ash/mineral content in comparison with control” value [2] is given as “increased carcass protein and ash/mineral content”.
